IC50 data for 17 compounds are collected here from patent US10858335B2 (Rigel Pharmaceuticals, Inc., priority 2014, dated 2020).

In the assay the test system is GDF8 signaling (p-SMAD-3 (Ser423/425)). As to the kind of experiment: AlphaScreen SureFire SMAD3 (p-Ser423/425) assay, GDF8-stimulated cells (GDF pSMAD). In kind it is cell-based. The following applies: Mus musculus, MPC-11, MPC11; GDF8-stimulated; p-SMAD3 AlphaScreen; read-out: GDF pSMAD (MPC11) (inhibition of GDF8 signaling). (Bead proximity is the source of the signal in Alpha formats.)
As for `Cc1cc(-c2ncccc2-c2ccc3c(cnn3C(=O)NCCN(C)C)c2)ccc1F` [compound 633, N-(2-(Dimethylamino)ethyl)-5-(2-(4-fluoro-3-methylphenyl)pyridin-3-yl)-1H-indazole-1-carboxamide], the IC50 was 11.3 µM.

Regarding `Fc1ccc(-c2ncccc2-c2ccc3nccnc3n2)cc1Cl` [compound 740, 6-(2-(3-Chloro-4-fluorophenyl)pyridin-3-yl)pyrido[2,3-b]pyrazine], the IC50 is 9.5 µM.

Turning to `Fc1ccc(-c2ncccc2-c2ccc3ncccc3n2)cc1Cl` [compound 691, 2-(2-(3-Chloro-4-fluorophenyl)pyridin-3-yl)-1,5-naphthyridine], the IC50 stood at 0.447 µM.

As to `Clc1cccc(-c2ncccc2-c2ccn3nccc3n2)c1` [compound 916, 5-(2-(3-Chlorophenyl)pyridin-3-yl)pyrazolo[1,5-a]pyrimidine], the IC50 came to 0.104 µM.

For `Clc1ccc(Cl)c(-c2ncccc2-c2ccc3ncsc3c2)c1` [compound 869, 6-(2-(2,5-Dichlorophenyl)pyridin-3-yl)benzo[d]thiazole], the IC50 was determined as 0.688 µM.

On to `Cc1cccc(-c2ncccc2-c2ccc3ncnc(N4CCOCC4)c3c2)c1` [compound 386, 4-(6-(2-(m-Tolyl)pyridin-3-yl)quinazolin-4-yl)morpholine], for which the IC50 is 2 µM.

Take `Fc1ccc(-c2ncccc2-c2ccc3nccn3c2)cc1` [Compound 53, 6-(2-(4-Fluorophenyl)pyridin-3-yl)imidazo[1,2-a]pyridine]: the IC50 came to 13.4 µM.

`Cc1cn2cc(-c3cccnc3-c3ccc(F)c(C)c3)ccc2n1` [compound 531, 6-(2-(4-Fluoro-3-methylphenyl)pyridin-3-yl)-2-methylimidazo[1,2-a]pyridine]: the IC50 turned out to be 11.2 µM.

Take `Cc1cc(-c2ncccc2-c2ccn3ncc(C(=O)N[C@@H]4CN5CCC4CC5)c3c2)ccc1F` [compound 792, (S)-5-(2-(4-Fluoro-3-methylphenyl)pyridin-3-yl)-N-(quinuclidin-3-yl)pyrazolo[1,5-a]pyridine-3-carboxamide]: the IC50 worked out at 2.43 µM.

Regarding `COc1cccc(-c2ncccc2-c2cnc3cn[nH]c3c2)c1` [Compound 142, 6-(2-(3-Methoxyphenyl)pyridin-3-yl)-1H-pyrazolo[4,3-b]pyridine], the IC50 came to 1.19 µM.

Regarding `CNc1ncnc2ccc(-c3cccnc3-c3ccc(F)c(Cl)c3)cc12` [compound 886, 6-(2-(3-Chloro-4-fluorophenyl)pyridin-3-yl)-N-methylquinazolin-4-amine], the IC50 came to 0.253 µM.

Regarding `COc1cnc(-c2cc(Cl)ccc2F)c(-c2ccn3ncnc3c2)c1` [compound 858, 7-(2-(5-Chloro-2-fluorophenyl)-5-methoxypyridin-3-yl)-[1,2,4]triazolo[1,5-a]pyridine], the IC50 was 2.37 µM.

For the compound `Cc1cc(-c2ncccc2-c2ccn3ncc(C(=O)NCCCO)c3c2)ccc1F` [compound 706, 5-(2-(4-Fluoro-3-methylphenyl)pyridin-3-yl)-N-(3-hydroxypropyl)pyrazolo[1,5-a]pyridine-3-carboxamide], the IC50 is 0.228 µM.

For `CCn1ncc2cc(-c3cccnc3-c3cccc(C)c3)ccc21` [Compound 185, 1-Ethyl-5-(2-m-tolylpyridin-3-yl)-1H-indazole], the IC50 was 8.86 µM.

Turning to `O=c1nc[nH]c2cc(-c3cccnc3-c3cccc(C4CC4)c3)ccc12` [compound 350, 7-(2-(3-cyclopropylphenyl)pyridin-3-yl)quinazolin-4(1H)-one], the IC50 was 0.347 µM.

Turning to `Cc1ccc(Oc2ncnc3ccc(-c4cccnc4-c4ccc(F)c(Cl)c4)cc23)cn1` [compound 437, 6-(2-(3-Chloro-4-fluorophenyl)pyridin-3-yl)-4-((6-methylpyridin-3-yl)oxy)quinazoline], the IC50 was 0.739 µM.

With `Fc1ccc(-c2ncccc2-c2ccc3nc[nH]c3c2)cc1Cl` [compound 782, 6-(2-(3-Chloro-4-fluorophenyl)pyridin-3-yl)-1H-benzo[d]imidazole], the IC50 was determined as 0.332 µM.
